Columns and labels:
Assay type in all cases: cell-based
GLP-1 receptor [1] = target: T1, GLP-1 receptor (Homo sapiens, UniProt P43220); assay: HitHunter cAMP assay, GLP-1 receptor; settings: for EC50: CHO cells stably expressing human GLP-1 receptor, cAMP accumulation, 30 min, read-out: EC50 GLP-1R; for Emax: CHO cells, cAMP, normalized to maximum signal from GLP-1 (high) and DMSO (low), read-out: Emax GLP-1R
GIP receptor [2] = target: T2, GIP receptor (Homo sapiens, UniProt P48546); assay: HitHunter cAMP assay, GIP receptor; settings: for EC50: CHO cells stably expressing GIP receptor, cAMP accumulation, 30 min, read-out: EC50 GIP-1R; for Emax: CHO cells, cAMP, normalized to maximum signal from GIP (high) and DMSO (low), read-out: Emax GIP-1R
T2 sequence (P48546 22-466): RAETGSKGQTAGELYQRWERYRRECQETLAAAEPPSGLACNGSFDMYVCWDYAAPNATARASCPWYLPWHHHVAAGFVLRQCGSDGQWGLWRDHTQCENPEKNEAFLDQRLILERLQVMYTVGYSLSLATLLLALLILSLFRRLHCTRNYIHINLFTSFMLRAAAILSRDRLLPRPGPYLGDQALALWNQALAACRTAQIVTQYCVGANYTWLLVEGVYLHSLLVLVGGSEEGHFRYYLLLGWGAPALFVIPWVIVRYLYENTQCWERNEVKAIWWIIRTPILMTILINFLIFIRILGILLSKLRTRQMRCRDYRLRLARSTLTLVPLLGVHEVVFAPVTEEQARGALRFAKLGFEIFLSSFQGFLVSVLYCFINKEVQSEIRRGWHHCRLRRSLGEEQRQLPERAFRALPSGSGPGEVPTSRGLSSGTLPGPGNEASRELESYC

GIP receptor [3] = target: T2, GIP receptor; assay: PathHunter β-arrestin assay, GIP receptor; set-up: host or cells: PathHunter CHO-K1 GIPR β-Arrestin Cell Line; settings: β-arrestin-2 recruitment, PathHunter CHO-K1 GIPR β-Arrestin Cell Line, 90 min at 37° C.; normalized to GIP; read-out: GIPR β Arrestin EC50
GLP-1 receptor [4] = target: T1, GLP-1 receptor; assay: PathHunter β-arrestin assay, GLP-1 receptor; set-up: host or cells: PathHunter CHO-K1 GLP1R β-Arrestin Cell Line; settings: β-arrestin-2 recruitment, PathHunter CHO-K1 GLP1R β-Arrestin Cell Line, 90 min at 37° C.; normalized to GLP-1; read-out: GLP-1R β Arrestin EC50

T1 sequence (P43220 24-463): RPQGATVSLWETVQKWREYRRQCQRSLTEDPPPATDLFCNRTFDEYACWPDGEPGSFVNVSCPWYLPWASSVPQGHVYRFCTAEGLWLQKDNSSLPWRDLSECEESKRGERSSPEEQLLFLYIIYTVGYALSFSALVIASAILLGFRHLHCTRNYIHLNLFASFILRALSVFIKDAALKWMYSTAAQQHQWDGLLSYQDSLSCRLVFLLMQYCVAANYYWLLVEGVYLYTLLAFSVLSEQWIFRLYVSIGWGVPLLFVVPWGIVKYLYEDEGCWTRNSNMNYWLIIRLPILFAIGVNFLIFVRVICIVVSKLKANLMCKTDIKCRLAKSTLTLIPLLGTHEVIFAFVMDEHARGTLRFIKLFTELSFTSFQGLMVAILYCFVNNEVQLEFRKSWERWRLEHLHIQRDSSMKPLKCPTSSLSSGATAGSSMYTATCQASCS

Structure (SMILES) | EC50 (GLP-1 receptor [1]) [nM] | Emax (GLP-1 receptor [1]) [%] | EC50 (GIP receptor [2]) [nM] | Emax (GIP receptor [2]) [%] | EC50 (GIP receptor [3]) [nM] | EC50 (GLP-1 receptor [4]) [nM]
CC[C@H](C)[C@H](NC(=O)[C@H](CO)NC(=O)[C@H](Cc1ccc(O)cc1)NC(=O)[C@H](CC(=O)O)NC(=O)[C@H](CO)NC(=O)[C@@H](NC(=O)[C@H](Cc1ccccc1)NC(=O)[C@@H](NC(=O)CNC(=O)[C@H](CCC(=O)O)NC(=O)CCNC(=O)[C@]1(c2ccccc2)CNC(=O)C1)[C@@H](C)O)[C@@H](C)O)C(=O)N[C@@H](Cc1ccc(O)cc1)C(=O)N[C@@H](CC(C)C)C(=O)N[C@@H](CC(=O)O)C(=O)N[C@@H](CCCCN)C(=O)N[C@@H](CCCCNC(=O)COCCOCCNC(=O)COCCOCCNC(=O)CC[C@H](NC(=O)CCCCCCCCCCCCCCCCCCC(=O)O)C(=O)O)C(=O)N[C@@H](C)C(=O)N[C@@H](C)C(=O)NC(C)(C)C(=O)N[C@@H](CCC(=O)O)C(=O)N[C@@H](Cc1ccccc1)C(=O)N[C@H](C(=O)N[C@@H](CC(N)=O)C(=O)N[C@@H](Cc1c[nH]c2ccccc12)C(=O)N[C@@H](CC(C)C)C(=O)N[C@@H](CC(C)C)C(=O)N[C@@H](C)C(=O)NCC(=O)NCC(=O)N1CCC[C@H]1C(=O)N[C@@H](CO)C(=O)N[C@@H](CO)C(=O)NCC(=O)N[C@@H](C)C(=O)N1CCC[C@H]1C(=O)N1CCC[C@H]1C(=O)N1CCC[C@H]1C(=O)N[C@@H](CO)C(N)=O)C(C)C (single isomer, unassigned) [Compound 113] | 0.1 to 1 | 112 | 1 to 10 | 98 | > 1000 | > 1000
CC[C@H](C)[C@H](NC(=O)[C@H](CO)NC(=O)[C@H](CCCCNC(=O)COCCOCCNC(=O)COCCOCCNC(=O)CC[C@H](NC(=O)CCCCCCCCCCCCCCCCCCC(=O)O)C(=O)O)NC(=O)[C@H](CC(=O)O)NC(=O)[C@H](CO)NC(=O)[C@@H](NC(=O)[C@H](Cc1ccccc1)NC(=O)[C@@H](NC(=O)CNC(=O)[C@H](CCC(=O)O)NC(=O)CCNC(=O)[C@@]1(c2ccccc2)CNC(=O)C1)[C@@H](C)O)[C@@H](C)O)C(=O)N[C@@H](Cc1ccc(O)cc1)C(=O)N[C@@H](CC(C)C)C(=O)N[C@@H](CC(=O)O)C(=O)N[C@@H](CCCCN)C(=O)N[C@@H](CCC(N)=O)C(=O)N[C@@H](C)C(=O)N[C@@H](C)C(=O)NC(C)(C)C(=O)N[C@@H](CCC(=O)O)C(=O)N[C@@H](Cc1ccccc1)C(=O)N[C@H](C(=O)N[C@@H](CC(N)=O)C(=O)N[C@@H](Cc1c[nH]c2ccccc12)C(=O)N[C@@H](CC(C)C)C(=O)N[C@@H](CC(C)C)C(=O)N[C@@H](C)C(=O)NCC(=O)NCC(=O)N1CCC[C@H]1C(=O)N[C@@H](CO)C(=O)N[C@@H](CO)C(=O)NCC(=O)N[C@@H](C)C(=O)N1CCC[C@H]1C(=O)N1CCC[C@H]1C(=O)N1CCC[C@H]1C(=O)N[C@@H](CO)C(N)=O)C(C)C (single isomer, unassigned) [Compound 123] | 10 to 100 | 95 | 10 to 100 | 103 | > 1000 | > 1000
CC[C@H](C)[C@H](NC(=O)[C@H](CO)NC(=O)[C@H](Cc1ccc(O)cc1)NC(=O)[C@H](CC(=O)O)NC(=O)[C@H](CO)NC(=O)[C@@H](NC(=O)[C@H](Cc1ccccc1)NC(=O)[C@@H](NC(=O)CNC(=O)[C@H](CCC(=O)O)NC(=O)CCNC(=O)[C@@]1(c2ccccc2)CNC(=O)C1)[C@@H](C)O)[C@@H](C)O)C(=O)N[C@@H](Cc1ccc(O)cc1)C(=O)N[C@@H](CC(C)C)C(=O)N[C@@H](CC(=O)O)C(=O)N[C@@H](CCCCN)C(=O)N[C@@H](CCC(N)=O)C(=O)N[C@@H](C)C(=O)N[C@@H](C)C(=O)N[C@@H](CCCCNC(=O)COCCOCCNC(=O)COCCOCCNC(=O)CC[C@H](NC(=O)CCCCCCCCCCCCCCCCCCC(=O)O)C(=O)O)C(=O)N[C@@H](CCC(=O)O)C(=O)N[C@@H](Cc1ccccc1)C(=O)N[C@H](C(=O)N[C@@H](CC(N)=O)C(=O)N[C@@H](Cc1c[nH]c2ccccc12)C(=O)N[C@@H](CC(C)C)C(=O)N[C@@H](CC(C)C)C(=O)N[C@@H](C)C(=O)NCC(=O)NCC(=O)N1CCC[C@H]1C(=O)N[C@@H](CO)C(=O)N[C@@H](CO)C(=O)NCC(=O)N[C@@H](C)C(=O)N1CCC[C@H]1C(=O)N1CCC[C@H]1C(=O)N1CCC[C@H]1C(=O)N[C@@H](CO)C(N)=O)C(C)C (single isomer, unassigned) [Compound 124] | 10 to 100 | 97 | 10 to 100 | 102 | > 1000 | > 1000
CC[C@H](C)[C@H](NC(=O)[C@H](CO)NC(=O)[C@H](Cc1ccc(O)cc1)NC(=O)[C@H](CC(=O)O)NC(=O)[C@H](CO)NC(=O)[C@@H](NC(=O)[C@H](Cc1ccccc1)NC(=O)[C@@H](NC(=O)CNC(=O)[C@H](CCC(=O)O)NC(=O)CCNC(=O)[C@@]1(c2ccccc2)CNC(=O)C1)[C@@H](C)O)[C@@H](C)O)C(=O)N[C@@H](Cc1ccc(O)cc1)C(=O)N[C@@H](CC(C)C)C(=O)N[C@@H](CC(=O)O)C(=O)N[C@@H](CCCCN)C(=O)N[C@@H](CCC(N)=O)C(=O)N[C@@H](C)C(=O)N[C@@H](C)C(=O)NC(C)(C)C(=O)N[C@@H](CCC(=O)O)C(=O)N[C@@H](Cc1ccccc1)C(=O)N[C@H](C(=O)N[C@@H](CC(N)=O)C(=O)N[C@@H](Cc1c[nH]c2ccccc12)C(=O)N[C@@H](CC(C)C)C(=O)N[C@@H](CC(C)C)C(=O)N[C@@H](C)C(=O)NCC(=O)NCC(=O)N1CCC[C@H]1C(=O)N[C@@H](CO)C(=O)N[C@@H](CO)C(=O)NCC(=O)N[C@@H](C)C(=O)N1CCC[C@H]1C(=O)N1CCC[C@H]1C(=O)N1CCC[C@H]1C(=O)N[C@@H](CO)C(=O)N[C@@H](CCCCNC(=O)COCCOCCNC(=O)COCCOCCNC(=O)CC[C@H](NC(=O)CCCCCCCCCCCCCCCCCCC(=O)O)C(=O)O)C(N)=O)C(C)C (single isomer, unassigned) [Compound 125] | 10 to 100 | 101 | 10 to 100 | 105 | > 1000 | > 1000
CC[C@H](C)[C@H](NC(=O)[C@H](CO)NC(=O)[C@H](Cc1ccc(O)cc1)NC(=O)[C@H](CC(=O)O)NC(=O)[C@H](CO)NC(=O)[C@@H](NC(=O)[C@H](Cc1ccccc1)NC(=O)[C@@H](NC(=O)CNC(=O)[C@H](CCC(=O)O)NC(=O)CCNC(=O)[C@]1(c2ccccc2)CNC(=O)C1)[C@@H](C)O)[C@@H](C)O)C(=O)N[C@@H](Cc1ccc(O)cc1)C(=O)N[C@@H](CC(C)C)C(=O)N[C@@H](CC(=O)O)C(=O)N[C@@H](CCCCN)C(=O)N[C@@H](CCC(N)=O)C(=O)N[C@@H](C)C(=O)N[C@@H](C)C(=O)N[C@@H](CCCCNC(=O)COCCOCCNC(=O)COCCOCCNC(=O)CC[C@H](NC(=O)CCCCCCCCCCCCCCCCCCC(=O)O)C(=O)O)C(=O)N[C@@H](CCC(=O)O)C(=O)N[C@@H](Cc1ccccc1)C(=O)N[C@H](C(=O)N[C@@H](CC(N)=O)C(=O)N[C@@H](Cc1c[nH]c2ccccc12)C(=O)N[C@@H](CC(C)C)C(=O)N[C@@H](CC(C)C)C(=O)N[C@@H](C)C(=O)NCC(=O)NCC(=O)N1CCC[C@H]1C(=O)N[C@@H](CO)C(=O)N[C@@H](CO)C(=O)NCC(=O)N[C@@H](C)C(=O)N1CCC[C@H]1C(=O)N1CCC[C@H]1C(=O)N1CCC[C@H]1C(=O)N[C@@H](CO)C(N)=O)C(C)C (single isomer, unassigned) [Compound 128] | 1 to 10 | 99 | 10 to 100 | 101 | > 1000 | > 1000
CC[C@H](C)[C@H](NC(=O)[C@H](CO)NC(=O)[C@H](CCCCNC(=O)COCCOCCNC(=O)COCCOCCNC(=O)CC[C@H](NC(=O)CCCCCCCCCCCCCCCCCCC(=O)O)C(=O)O)NC(=O)[C@H](CC(=O)O)NC(=O)[C@H](CO)NC(=O)[C@@H](NC(=O)[C@H](Cc1ccccc1)NC(=O)[C@@H](NC(=O)CNC(=O)[C@H](CCC(=O)O)NC(=O)CCNC(=O)[C@]1(c2ccccc2)CNC(=O)C1)[C@@H](C)O)[C@@H](C)O)C(=O)N[C@@H](Cc1ccc(O)cc1)C(=O)N[C@@H](CC(C)C)C(=O)N[C@@H](CC(=O)O)C(=O)N[C@@H](CCCCN)C(=O)N[C@@H](CCC(N)=O)C(=O)N[C@@H](C)C(=O)N[C@@H](C)C(=O)NC(C)(C)C(=O)N[C@@H](CCC(=O)O)C(=O)N[C@@H](Cc1ccccc1)C(=O)N[C@H](C(=O)N[C@@H](CC(N)=O)C(=O)N[C@@H](Cc1c[nH]c2ccccc12)C(=O)N[C@@H](CC(C)C)C(=O)N[C@@H](CC(C)C)C(=O)N[C@@H](C)C(=O)NCC(=O)NCC(=O)N1CCC[C@H]1C(=O)N[C@@H](CO)C(=O)N[C@@H](CO)C(=O)NCC(=O)N[C@@H](C)C(=O)N1CCC[C@H]1C(=O)N1CCC[C@H]1C(=O)N1CCC[C@H]1C(=O)N[C@@H](CO)C(N)=O)C(C)C (single isomer, unassigned) [Compound 129] | 1 to 10 | 108 | 10 to 100 | 106 | > 1000 | > 1000

Reference: patent US12281149B2, “Modulators of G-protein coupled receptors” (priority 2021, dated 2025)
